Experimental data published in US9718822B2, “Macrocyclic compounds as Trk kinase inhibitors” (Array BioPharma, Inc., priority 2010, dated 2017).
Like-named read-outs stand apart in the source and are kept apart here.

Tests used:
[1] = 14-membered ring
[2] = biological target: histidine-tagged recombinant human TrkA, cytoplasmic domain (Homo sapiens (Human), UniProt P04629); assay: TrkA ELISA Assay; type: biochemical; conditions: read-out: TrkA Elisa Enzyme Assay IC50; note: 2.5 nM TrkA
Protocol: An enzyme-linked immunosorbant assay (ELISA) was used to assess TrkA kinase activity in the presence of inhibitors. Immulon 4HBX 384-well microtiter plates (Thermo part #8755) were coated with a 0.025 mg/mL solution of poly (Glu, Ala, Tyr; 6:3:1; Sigma P3899). […] The assay buffer consisted of 25 mM MOPS pH 7.5, 0.005% (v/v) Triton X-100 and 5 mM MgCl2. The reaction mixture was removed from the plate by washing with PBS containing 0.1% (v/v) Tween 20. The phosphorylated reaction product was detected using 0.2 μg/mL of a phosphotyrosine specific monoclonal antibody (clone PY20) conjugated to horseradish peroxidase in conjunction with the TMB Peroxidase Substrate System (KPL). After the addition of 1M phosphoric acid, the chromogenic substrate color intensity was quantitated via absorbance at 450 nm. IC50 values were calculated using either a 4 or 5-parameter logistic curve fit.
Table 1 provides averaged IC50 values for compounds of the invention when tested in this assay.

[3] = biological target: His-tagged recombinant human TrkA (cytoplasmic domain) (Homo sapiens (Human), UniProt P04629); assay: TrkA Binding Assay (LanthaScreen Eu Kinase Binding Assay)
Protocol: The ability of a compound to bind to TrkA was measured by Invitrogen's LanthaScreen™ Eu Kinase Binding Assay. […] After a 60-minute incubation at 22° C., the reaction was measured using the EnVision via TR-FRET dual wavelength detection, and the POC was calculated from the emission ratio. The compound dose response data was fit to a 4-parameter logistic model and IC50 was defined as the concentration of compound at 50 POC.

Chain of His-tagged recombinant human TrkA (cytoplasmic domain) (P04629 440-796): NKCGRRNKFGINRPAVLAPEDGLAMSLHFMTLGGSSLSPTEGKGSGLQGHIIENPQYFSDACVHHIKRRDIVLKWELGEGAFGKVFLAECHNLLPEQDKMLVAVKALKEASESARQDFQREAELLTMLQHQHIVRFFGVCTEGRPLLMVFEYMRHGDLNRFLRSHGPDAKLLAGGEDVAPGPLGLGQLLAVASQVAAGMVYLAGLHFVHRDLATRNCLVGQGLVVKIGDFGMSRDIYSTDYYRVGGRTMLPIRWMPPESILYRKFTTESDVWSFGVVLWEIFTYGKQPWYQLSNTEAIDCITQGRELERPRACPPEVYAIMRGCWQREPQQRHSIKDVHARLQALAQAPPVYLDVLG
Chain of histidine-tagged recombinant human TrkA, cytoplasmic domain (P04629 440-796): as above

IC50 [2] [nM]	IC50 [3] [nM]	Compound	ring closure, isolated yield ([1]; from NCCCn1cc(F)cc([C@H]2CCCN2c2ccn3ncc(C(=O)O)c3n2)c1=O, amide bond, EDCI/HOBt/TEA, DMF/DCM 1:2, 26.7 mM, 6.0 h) [%]	ring closure, yield of all isomers (from NCCCn1cc(F)cc([C@H]2CCCN2c2ccn3ncc(C(=O)O)c3n2)c1=O, amide bond, EDCI/HOBt, DCM, 26.7 mM, 25.0 °C, 6.0 h) [%]	ring closure, isolated yield ([1]; from O=C(NC[C@H](O)CCl)c1cnn2ccc(N3CCC[C@@H]3c3cc(F)c[nH]c3=O)nc12, other bond, Cs2CO3, DMF, […], 85.0 °C, 2.0 h) [%]	ring closure, yield of all isomers (from O=C(NC[C@H](O)CCl)c1cnn2ccc(N3CCC[C@@H]3c3cc(F)c[nH]c3=O)nc12, amine bond, Cs2CO3, DMF, […], 85.0 °C, 2.0 h) [%]	ring closure, isolated yield ([1]; from C[C@H](CN)Cn1cc(F)cc([C@H]2CCCN2c2ccn3ncc(C(=O)O)c3n2)c1=O, amide bond, HATU/DIEA, DMF, […], 3.0 h, 2 steps) [%]	ring closure, yield of all isomers (from COC(=O)c1cnn2ccc(N3CCC[C@@H]3c3cc(F)cn(C[C@H](C)CN)c3=O)nc12, amide bond, HATU, DMF, […], 3.0 h, 2 steps) [%]
1 to 100	1 to 100	O=C1NCCCn2cc(F)cc(c2=O)[C@H]2CCCN2c2ccn3ncc1c3n2 [Example 1, (6R)-9-fluoro-2,11,15,19,20,23-hexaazapentacyclo[15.5.2.1^7,11.0^2,6.0^20,24]pentacosa-1(23),7,9,17(24),18,21-hexaene-16,25-dione]	39	39				
1 to 100	1 to 100	O=C1NC[C@H](O)Cn2cc(F)cc(c2=O)[C@H]2CCCN2c2ccn3ncc1c3n2 [Example 5, (6R,13S)-9-fluoro-13-hydroxy-2,11,15,19,20,23-hexaazapentacyclo-[15.5.2.1^7,11.0^2,6.0^20,24]pentacosa-1(23),7,9,17(24),18,21-hexaene-16,25-dione]			12	27		

Compound	IC50 [2] [nM]	IC50 [3] [nM]	ring closure, isolated yield ([1]; from NCCCn1cc(F)cc([C@H]2CCCN2c2ccn3ncc(C(=O)O)c3n2)c1=O, amide bond, EDCI/HOBt/TEA, DMF/DCM 1:2, 26.7 mM, 6.0 h) [%]	ring closure, yield of all isomers (from NCCCn1cc(F)cc([C@H]2CCCN2c2ccn3ncc(C(=O)O)c3n2)c1=O, amide bond, EDCI/HOBt, DCM, 26.7 mM, 25.0 °C, 6.0 h) [%]	ring closure, isolated yield ([1]; from O=C(NC[C@H](O)CCl)c1cnn2ccc(N3CCC[C@@H]3c3cc(F)c[nH]c3=O)nc12, other bond, Cs2CO3, DMF, […], 85.0 °C, 2.0 h) [%]	ring closure, yield of all isomers (from O=C(NC[C@H](O)CCl)c1cnn2ccc(N3CCC[C@@H]3c3cc(F)c[nH]c3=O)nc12, amine bond, Cs2CO3, DMF, […], 85.0 °C, 2.0 h) [%]	ring closure, isolated yield ([1]; from C[C@H](CN)Cn1cc(F)cc([C@H]2CCCN2c2ccn3ncc(C(=O)O)c3n2)c1=O, amide bond, HATU/DIEA, DMF, […], 3.0 h, 2 steps) [%]	ring closure, yield of all isomers (from COC(=O)c1cnn2ccc(N3CCC[C@@H]3c3cc(F)cn(C[C@H](C)CN)c3=O)nc12, amide bond, HATU, DMF, […], 3.0 h, 2 steps) [%]
C[C@@H]1CNC(=O)c2cnn3ccc(nc23)N2CCC[C@@H]2c2cc(F)cn(c2=O)C1 [Example 34, (6R,13R)-9-fluoro-13-methyl-2,11,15,19,20,23-hexaazapentacyclo [15.5.2.1^7,11.0^2,6.0^20,24]pentacosa-1(23),7,9,17(24),18,21-hexaene-16,25-dione]		1 to 100					10	10
